According to patent US20250214991A1 (Oncopia Therapeutics, Inc. d/b/a/ SK Life Science Labs, priority 2022, published 2025):

Tests used:
CRBN/DDB1 = CRBN/DDB1 (Homo sapiens (Human), UniProt Q96SW2); assay: IC50 measurements for binding to CRBN/DDB1 (HTRF); conditions: His tagged CRBN+DDB, Cy5-labeled Thalidomide probe, one hour
Procedure, shortened: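 HTRF competition binding with 2 nM His-tagged CRBN-DDB1 complex, 60 nM Cy5-thalidomide probe and 0.4 nM anti-His Tb cryptate in 50 mM HEPES pH 7.5, 1 mM TCEP, 0.01% Brij-35, 50 mM NaCl, 0.1% BSA. Read after 1 h at room temperature; IC50 from four-parameter dose-response fit.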

IKZF2 [1] = target: T1, IKZF2 (Homo sapiens (Human), UniProt Q96SW2+Q9UKS7); assay: In vitro IKZF2 FACS Assay in Jurkat cells; type: cell-based; conditions: 24 hrs; for DC50: half maximal degradation concentration; for Dmax: maximal degradation percentage
Description: In vitro IKZF2 FACS Assay
DC50, A: <1 nM; B: 1-10 nM; C: 10-100 nM; D: 100-1000 nM; E: >1000 nM. Dmax, A: >80%; B: 60-80%; C: 40-60%; D: 20-40%; E: <20%.

IKZF2 [2] = target: T1, IKZF2; assay: In vitro IKZF2 HiBit Assay (HEK293T Flp-in-HiBiT cells); type: cell-based; conditions: HEK293T Flp-in-HiBiT cells, 6 hrs incubation; for DC50: read-out: IKZF2 HiBit DC50; for Dmax: HEK-293T, read-out: IKZF2 HiBit Dmax (%)
Procedure, shortened: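 HEK293T Flp-in cells carrying an endogenous N-terminal HiBiT tag on IKZF2 were exposed to compound for 6 h at 0.1% DMSO. The dilution series was 11 doses at 3-fold, diluted from 1 mM. Nano-Glo HiBiT lytic luminescence, normalized to DMSO, gave DC50 for 50% degradation and Dmax across the concentration range, both reported in letter bins.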

IKZF1 = IKZF1 (Homo sapiens (Human), UniProt Q13422+Q96SW2); assay: In vitro IKZF1 HiBit Assay (HEK293T Flp-in-HiBiT-IKZF1 stable cell line); type: cell-based; conditions: HEK293T Flp-in-HiBiT-IKZF1 stable cell line, 6 hrs incubation; for DC50: read-out: IKZF1 HiBit DC50; for Dmax: HEK-293T, read-out: IKZF1 HiBit Dmax (%)
Procedure, shortened: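 HEK293T Flp-in cells carrying N-terminal HiBiT-tagged IKZF1 were exposed to compound (0.1% DMSO) for 6 h at 3000 cells/well. HiBiT luminescence was read after lytic LgBiT detection. DC50 and Dmax were taken from DMSO-normalized dose-response curves.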

Chain of CRBN/DDB1 (Q96SW2 whole entry, species assumed): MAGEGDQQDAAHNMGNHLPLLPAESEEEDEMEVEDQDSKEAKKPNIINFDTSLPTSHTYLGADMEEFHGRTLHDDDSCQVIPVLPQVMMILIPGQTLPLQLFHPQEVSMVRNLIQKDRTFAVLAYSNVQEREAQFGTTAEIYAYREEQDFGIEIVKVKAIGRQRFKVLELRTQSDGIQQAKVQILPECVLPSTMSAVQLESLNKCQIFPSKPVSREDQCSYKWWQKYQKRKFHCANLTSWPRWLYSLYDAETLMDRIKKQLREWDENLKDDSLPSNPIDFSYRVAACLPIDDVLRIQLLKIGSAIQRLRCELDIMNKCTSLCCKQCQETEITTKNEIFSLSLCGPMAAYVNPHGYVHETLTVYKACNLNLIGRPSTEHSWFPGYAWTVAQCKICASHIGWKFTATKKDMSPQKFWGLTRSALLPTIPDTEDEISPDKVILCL
Chain of CRBN/DDB1 (Q16531 whole entry partner, species assumed): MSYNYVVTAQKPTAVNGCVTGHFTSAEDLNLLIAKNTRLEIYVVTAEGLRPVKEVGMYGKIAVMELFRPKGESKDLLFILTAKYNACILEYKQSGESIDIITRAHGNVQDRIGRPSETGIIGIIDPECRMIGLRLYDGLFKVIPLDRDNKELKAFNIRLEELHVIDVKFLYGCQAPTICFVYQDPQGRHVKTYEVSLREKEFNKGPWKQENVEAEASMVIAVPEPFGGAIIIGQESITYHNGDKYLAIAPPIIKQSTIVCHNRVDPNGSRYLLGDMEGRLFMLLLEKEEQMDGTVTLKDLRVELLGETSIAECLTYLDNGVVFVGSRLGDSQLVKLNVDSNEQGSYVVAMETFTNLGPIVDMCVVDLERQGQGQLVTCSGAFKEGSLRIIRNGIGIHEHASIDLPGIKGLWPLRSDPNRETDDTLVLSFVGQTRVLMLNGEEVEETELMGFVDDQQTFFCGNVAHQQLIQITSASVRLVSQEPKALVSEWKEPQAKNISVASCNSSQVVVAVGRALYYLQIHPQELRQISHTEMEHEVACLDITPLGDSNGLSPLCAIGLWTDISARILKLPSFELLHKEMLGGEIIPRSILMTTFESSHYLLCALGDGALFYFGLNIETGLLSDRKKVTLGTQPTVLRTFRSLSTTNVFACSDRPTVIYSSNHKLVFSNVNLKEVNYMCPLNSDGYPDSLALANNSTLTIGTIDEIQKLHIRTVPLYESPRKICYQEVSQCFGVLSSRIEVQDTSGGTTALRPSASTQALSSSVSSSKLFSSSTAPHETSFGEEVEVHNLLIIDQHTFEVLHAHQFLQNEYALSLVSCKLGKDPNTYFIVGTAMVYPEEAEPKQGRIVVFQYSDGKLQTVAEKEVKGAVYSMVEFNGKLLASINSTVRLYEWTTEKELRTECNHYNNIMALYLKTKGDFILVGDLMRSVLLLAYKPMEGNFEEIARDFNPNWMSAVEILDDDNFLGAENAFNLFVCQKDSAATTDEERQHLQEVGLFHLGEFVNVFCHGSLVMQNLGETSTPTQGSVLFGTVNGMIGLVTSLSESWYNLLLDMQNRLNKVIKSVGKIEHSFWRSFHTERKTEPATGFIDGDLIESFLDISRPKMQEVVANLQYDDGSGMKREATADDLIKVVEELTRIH
T1 sequence (Q9UKS7 whole entry): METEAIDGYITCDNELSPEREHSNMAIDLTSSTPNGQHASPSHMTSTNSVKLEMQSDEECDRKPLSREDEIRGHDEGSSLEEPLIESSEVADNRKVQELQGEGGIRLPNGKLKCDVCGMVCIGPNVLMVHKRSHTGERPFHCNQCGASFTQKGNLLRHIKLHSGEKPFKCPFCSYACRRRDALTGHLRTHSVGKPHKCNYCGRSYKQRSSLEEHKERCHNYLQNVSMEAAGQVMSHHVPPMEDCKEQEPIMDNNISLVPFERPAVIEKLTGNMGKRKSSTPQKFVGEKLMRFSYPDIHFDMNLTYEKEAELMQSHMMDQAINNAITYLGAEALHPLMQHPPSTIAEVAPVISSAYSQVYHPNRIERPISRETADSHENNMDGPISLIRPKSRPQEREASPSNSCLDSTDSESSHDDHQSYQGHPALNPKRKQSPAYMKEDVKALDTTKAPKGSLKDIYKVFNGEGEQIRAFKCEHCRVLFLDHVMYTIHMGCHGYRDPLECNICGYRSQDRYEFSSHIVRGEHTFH
T1 sequence (Q96SW2 whole entry): as the sequence (Q96SW2 whole entry, species assumed) above
T1 sequence (Q16531 2-1140 partner): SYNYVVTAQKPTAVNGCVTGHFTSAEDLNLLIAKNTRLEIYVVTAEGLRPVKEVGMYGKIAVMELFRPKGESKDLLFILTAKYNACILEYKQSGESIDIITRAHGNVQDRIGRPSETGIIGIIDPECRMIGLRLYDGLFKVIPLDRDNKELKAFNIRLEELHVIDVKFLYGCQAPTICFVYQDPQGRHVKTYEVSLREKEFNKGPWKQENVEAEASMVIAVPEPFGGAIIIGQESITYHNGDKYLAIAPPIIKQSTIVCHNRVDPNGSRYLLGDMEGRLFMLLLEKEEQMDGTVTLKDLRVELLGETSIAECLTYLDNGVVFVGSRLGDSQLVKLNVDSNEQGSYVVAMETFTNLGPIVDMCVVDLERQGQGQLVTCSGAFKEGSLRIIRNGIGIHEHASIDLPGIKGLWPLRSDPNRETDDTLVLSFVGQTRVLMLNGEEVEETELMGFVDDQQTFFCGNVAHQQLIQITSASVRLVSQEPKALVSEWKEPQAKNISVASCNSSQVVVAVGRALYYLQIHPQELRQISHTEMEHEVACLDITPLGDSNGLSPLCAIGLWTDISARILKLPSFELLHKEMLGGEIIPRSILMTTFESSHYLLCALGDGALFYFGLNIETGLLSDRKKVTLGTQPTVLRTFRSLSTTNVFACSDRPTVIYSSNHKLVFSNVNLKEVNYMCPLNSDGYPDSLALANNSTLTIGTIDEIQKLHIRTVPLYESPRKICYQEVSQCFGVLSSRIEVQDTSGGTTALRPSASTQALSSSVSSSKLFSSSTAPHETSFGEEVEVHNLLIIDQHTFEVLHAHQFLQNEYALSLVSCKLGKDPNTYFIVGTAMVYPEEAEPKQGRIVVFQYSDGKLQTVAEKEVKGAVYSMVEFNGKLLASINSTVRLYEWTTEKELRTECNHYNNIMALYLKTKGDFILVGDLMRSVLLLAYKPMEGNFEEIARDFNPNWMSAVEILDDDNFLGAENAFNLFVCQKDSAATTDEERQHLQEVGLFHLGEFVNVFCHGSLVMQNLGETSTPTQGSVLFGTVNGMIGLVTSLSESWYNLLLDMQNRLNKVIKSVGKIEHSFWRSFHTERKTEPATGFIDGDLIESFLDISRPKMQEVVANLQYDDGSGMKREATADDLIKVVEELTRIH
Chain of IKZF1 (Q13422 whole entry): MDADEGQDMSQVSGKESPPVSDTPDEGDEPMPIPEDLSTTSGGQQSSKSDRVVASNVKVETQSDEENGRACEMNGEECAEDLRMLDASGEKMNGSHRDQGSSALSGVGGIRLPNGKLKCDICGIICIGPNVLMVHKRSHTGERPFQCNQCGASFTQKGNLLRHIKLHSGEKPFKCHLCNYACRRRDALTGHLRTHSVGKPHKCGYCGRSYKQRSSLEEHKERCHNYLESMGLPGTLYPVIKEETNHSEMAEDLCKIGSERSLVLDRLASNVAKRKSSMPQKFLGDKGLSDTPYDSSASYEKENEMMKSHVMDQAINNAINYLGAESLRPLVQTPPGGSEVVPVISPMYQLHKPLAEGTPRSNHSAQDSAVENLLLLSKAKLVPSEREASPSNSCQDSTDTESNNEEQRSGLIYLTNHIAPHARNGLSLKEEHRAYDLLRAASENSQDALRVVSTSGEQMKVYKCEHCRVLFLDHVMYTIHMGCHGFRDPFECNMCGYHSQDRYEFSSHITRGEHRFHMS
Chain of IKZF1 (Q96SW2 whole entry): as the sequence (Q96SW2 whole entry, species assumed) above
Chain of IKZF1 (Q16531 2-1140 partner): as the sequence (Q16531 2-1140 partner) above

Structure (SMILES) | IC50 (CRBN/DDB1) [nM] | DC50 (IKZF2 [1]) [nM] | Dmax (IKZF2 [1]) [%] | DC50 (IKZF2 [2]) [nM] | Dmax (IKZF2 [2]) [%] | DC50 (IKZF1) [nM] | Dmax (IKZF1) [%]
CC(C)Nc1n[nH]c2c(CN3CCCC3)cc(-c3ccc4c(c3Cl)CN(C3CCC(=O)NC3=O)C4=O)nc12 (centres unmarked) [Example 227, 3-(4-chloro-5-(3-(isopropylamino)-7-(pyrrolidin-1-ylmethyl)-1H-pyrazolo[4,3-b]pyridin-5-yl)-1-oxoisoindolin-2-yl) piperidine-2,6-dione] | 500 to 1000 | 10 to 100 | > 80 | 1 to 10 | 60 to 80 | > 10000 | < 20
O=C1CCC(N2Cc3cc(-c4cc(CN5CCCC5)cc5cncn45)ccc3C2=O)C(=O)N1 (centres unmarked) [Example 1, 3-(1-oxo-5-(7-(pyrrolidin-1-ylmethyl)imidazo[1,5-a]pyridin-5-yl)isoindolin-2-yl) piperidine-2,6-dione] | 100 to 500 | 10 to 100 | 60 to 80 | 10 to 100 | 60 to 80 | > 10000 | < 20
CC(C)Oc1ccnc2c(CN3CCCC3)cc(-c3ccc4c(c3)CN(C3CCC(=O)NC3=O)C4=O)nc12 (centres unmarked) [Example 232, 3-(5-(8-isopropoxy-4-(pyrrolidin-1-ylmethyl)-1,5-naphthyridin-2-yl)-1-oxoisoindolin-2-yl) piperidine-2,6-dione] | 500 to 1000 | 10 to 100 | 60 to 80 | 1 to 10 | 60 to 80 | > 10000 | < 20
O=C1CCC(N2Cc3c(ccc(-c4cc(CN5CCCC5)c5ccn(C6COC6)c5n4)c3F)C2=O)C(=O)N1 (centres unmarked) [Example 223, 3-(4-fluoro-5-(1-(oxetan-3-yl)-4-(pyrrolidin-1-ylmethyl)-1H-pyrrolo[2,3-b]pyridin-6-yl)-1-oxoisoindolin-2-yl) piperidine-2,6-dione] | 100 to 500 | 1 to 10 | > 80 | < 1 | 60 to 80 | 1 to 10 | 20 to 40
O=C1CCC(N2Cc3cc(-c4cc(CN5CCCC5)c5ncn(C6CCC6)c5n4)ccc3C2=O)C(=O)N1 (centres unmarked) [Example 209, 3-(5-(3-cyclobutyl-7-(pyrrolidin-1-ylmethyl)-3H-imidazo[4,5-b]pyridin-5-yl)-1-oxoisoindolin-2-yl) piperidine-2,6-dione] | 1000 to 5000 | 10 to 100 | > 80 | 1 to 10 | > 80 | > 10000 | < 20
O=C1CCC(N2Cc3cc(-c4cc(CN5CCCC5)c5ccn(C6CS(=O)(=O)C6)c5n4)ccc3C2=O)C(=O)N1 (centres unmarked) [Example 176, 3-(5-(1-(1,1-dioxidothietan-3-yl)-4-(pyrrolidin-1-ylmethyl)-1H-pyrrolo[2,3-b]pyridin-6-yl)-1-oxoisoindolin-2-yl) piperidine-2,6-dione] | 500 to 1000 | 1 to 10 | 60 to 80 | 1 to 10 | > 80 | 10 to 100 | 20 to 40
Nc1nn(C2CC2)c2c(CN3CCCC3)cc(-c3ccc4c(c3)CN(C3CCC(=O)NC3=O)C4=O)nc12 (centres unmarked) [Example 210, 3-(5-(3-amino-1-cyclopropyl-7-(pyrrolidin-1-ylmethyl)-1H-pyrazolo[4,3-b]pyridin-5-yl)-1-oxoisoindolin-2-yl) piperidine-2,6-dione] | 500 to 1000 | 1 to 10 | > 80 | 1 to 10 | > 80 | 100 to 1000 | 40 to 60
CC(C)Nc1n[nH]c2c(CN3CCCC3)cc(-c3ccc4c(c3F)CN(C3CCC(=O)NC3=O)C4=O)nc12 (centres unmarked) [Example 226, 3-(4-fluoro-5-(3-(isopropylamino)-7-(pyrrolidin-1-ylmethyl)-1H-pyrazolo[4,3-b]pyridin-5-yl)-1-oxoisoindolin-2-yl) piperidine-2,6-dione] | 100 to 500 | 1 to 10 | > 80 | < 1 | > 80 | > 10000 | < 20
